Data taken from patent US20240391936A1, “TETRAHYDROTHIENO PYRIDINE DERIVATIVES AS DDRS INHIBITORS” (CHIESI FARMACEUTICI S.P.A., priority 2021, published 2024).

Legend:
DDR1 [1] = target: T1, DDR1 (Homo sapiens, UniProt Q08345); test: DDR1 cell based assay (PathHunter U2OS DDR1 assay); design: host or cells: U2OS-DDR1 (PathHunter); details: U2OS-DDR1 cells, bovine Type II Collagen 20 μg/ml
How it was run: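 U2OS-DDR1 PathHunter cells preincubated 30 min with compound, then stimulated overnight at 37 °C with 20 μg/ml bovine type II collagen. Luminescent complementation signal read after 1 h detection at room temperature; normalized to vehicle (0%) and collagen-only (100%) controls, IC50 from variable-slope sigmoidal fit.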

DDR2 [2] = target: T2, DDR2 (Homo sapiens, UniProt Q16832); test: DDR2 binding assay (LanthaScreen Europium Kinase Binding assay); design: purchased Life Technologies; details: binding assay, 5 nM DDR2, 10 nM Kinase Tracer 178; Ki from IC50 by Cheng-Prusoff; read-out: Ki DDR2
T2 sequence (Q16832 22-855): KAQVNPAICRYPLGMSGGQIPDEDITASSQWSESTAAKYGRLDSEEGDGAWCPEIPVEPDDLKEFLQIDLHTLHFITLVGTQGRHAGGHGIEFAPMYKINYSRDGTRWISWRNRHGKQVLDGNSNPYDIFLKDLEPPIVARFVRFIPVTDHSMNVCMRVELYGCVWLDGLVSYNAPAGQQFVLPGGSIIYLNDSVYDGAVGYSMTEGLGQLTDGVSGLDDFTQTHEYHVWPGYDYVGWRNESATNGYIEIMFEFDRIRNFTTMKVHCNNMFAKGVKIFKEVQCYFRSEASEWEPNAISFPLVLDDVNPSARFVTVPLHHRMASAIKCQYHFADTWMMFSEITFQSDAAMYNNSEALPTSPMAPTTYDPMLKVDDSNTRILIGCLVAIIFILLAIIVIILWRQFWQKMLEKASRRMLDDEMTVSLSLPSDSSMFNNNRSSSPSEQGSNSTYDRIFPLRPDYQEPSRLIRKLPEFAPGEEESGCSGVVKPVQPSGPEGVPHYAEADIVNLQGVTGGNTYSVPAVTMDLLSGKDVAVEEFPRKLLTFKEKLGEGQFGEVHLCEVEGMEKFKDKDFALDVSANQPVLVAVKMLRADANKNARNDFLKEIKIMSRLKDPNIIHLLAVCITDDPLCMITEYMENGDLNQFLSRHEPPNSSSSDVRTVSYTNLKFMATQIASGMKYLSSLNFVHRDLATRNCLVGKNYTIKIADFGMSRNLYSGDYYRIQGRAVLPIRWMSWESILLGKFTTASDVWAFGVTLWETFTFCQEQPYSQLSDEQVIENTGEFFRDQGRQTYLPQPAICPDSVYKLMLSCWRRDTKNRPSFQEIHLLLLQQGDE
How it was run: (§1)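 Compounds incubated 1 h at room temperature with 5 nM kinase, Kinase Tracer 178 (20 nM for DDR1, 10 nM for DDR2) and 2 nM Eu-anti-GST antibody in pH 7.5 HEPES/MgCl2/EGTA/BRIJ35 buffer. TR-FRET 665/615 nm ratio read after 340 nm excitation; IC50 from 4-parameter fit, converted to Ki by Cheng-Prusoff.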

DDR2 [3] = target: T2, DDR2; test: DDR2 cell based assay (phospho-ELISA in HEK293T-DDR2 recombinant cells); design: expressed in transfected cells; host or cells: HEK293T-DDR2 recombinant cells; details: bovine Type II Collagen 50 μg/ml
Method: The inhibition of DDR2 phosphorylation by compounds was evaluated in HEK293T-DDR2 recombinant cells by phospho-ELISA assay. Briefly, HEK293T-DDR2 cells were seeded in poly-D-lysine-coated 24-well plates at a density of 250.000 cells/well and incubated for 1.5 hours at 37° C. and 5% CO2 in DMEM+10% FBS. After that, the medium was changed to serum-free DMEM and cells were incubated for 3 hours. Then. test compounds were added at different concentrations 30 minutes before stimulation with bovine Type II Collagen at 50 μg/ml for further 3 hours. For DDR2 phospho-ELISA assay (DuoSet IC Human Phospho-DDR2; R&D Systems), protein extracts were obtained by adding 60 μl/well of lysis buffer prepared according to the manufacturer's instructions. Protein concentration in the samples was determined by BCA assay and the levels of phospho-DDR2 were determined following R&D Systems indications. Raw data were normalized to maximal inhibition control (0% for normalization) and positive control (100% for normalization; cells treated with […] collagen II) and IC50 parameters were calculated in GraphPad Prism 8.0 software, using sigmoidal dose-response curve fitting with variable slope.

DDR1 [4] = target: T1, DDR1; test: DDR1 binding assay (LanthaScreen Europium Kinase Binding assay); design: purchased Carna Biosciences; details: binding assay, 5 nM DDR1, 20 nM Kinase Tracer 178; Ki from IC50 by Cheng-Prusoff; read-out: Ki DDR1
How it was run: as §1

T1 sequence (Q08345 19-913): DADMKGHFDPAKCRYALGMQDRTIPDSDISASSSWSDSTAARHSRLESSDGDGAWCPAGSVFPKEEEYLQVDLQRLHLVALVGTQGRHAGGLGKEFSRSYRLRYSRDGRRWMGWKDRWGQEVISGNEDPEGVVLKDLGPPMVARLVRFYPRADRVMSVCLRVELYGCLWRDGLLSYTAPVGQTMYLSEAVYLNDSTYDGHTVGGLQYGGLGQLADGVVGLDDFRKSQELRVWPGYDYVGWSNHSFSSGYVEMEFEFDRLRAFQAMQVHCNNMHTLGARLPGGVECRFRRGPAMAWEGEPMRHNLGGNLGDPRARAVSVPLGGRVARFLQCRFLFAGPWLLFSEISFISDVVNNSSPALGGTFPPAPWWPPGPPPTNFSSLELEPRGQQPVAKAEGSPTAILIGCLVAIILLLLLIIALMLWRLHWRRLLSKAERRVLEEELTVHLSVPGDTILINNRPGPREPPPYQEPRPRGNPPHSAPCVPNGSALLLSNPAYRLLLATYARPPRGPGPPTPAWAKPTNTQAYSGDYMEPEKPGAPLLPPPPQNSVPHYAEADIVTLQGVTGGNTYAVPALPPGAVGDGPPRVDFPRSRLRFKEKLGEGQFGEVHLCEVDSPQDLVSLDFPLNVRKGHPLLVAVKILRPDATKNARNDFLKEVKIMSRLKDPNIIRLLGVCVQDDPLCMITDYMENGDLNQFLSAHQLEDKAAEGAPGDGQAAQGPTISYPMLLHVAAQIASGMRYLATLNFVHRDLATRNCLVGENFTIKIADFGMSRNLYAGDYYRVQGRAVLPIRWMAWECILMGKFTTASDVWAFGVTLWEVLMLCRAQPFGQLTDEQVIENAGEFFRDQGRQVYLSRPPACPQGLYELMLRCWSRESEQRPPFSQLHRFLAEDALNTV

Structure (SMILES)	IC50 (DDR1 [1]) [nM]	Ki (DDR2 [2]) [nM]	IC50 (DDR2 [3]) [nM]	Ki (DDR1 [4]) [nM]
CC1Cc2c(C(=O)Nc3cccc(C(F)(F)F)c3)csc2CN1Cc1cnc2cnccn12 (single isomer, unassigned) [Example 104, 6-(imidazo[1,2-a]pyrazin-3-ylmethyl)-5-methyl-N-(3-(trifluoromethyl)phenyl)-4,5,6,7-tetrahydrothieno[2,3-c]pyridine-3-carboxamide]	< 25	< 25	50 to 80	< 25
CC1c2scc(C(=O)Nc3cccc(C(F)(F)F)c3)c2CCN1Cc1cnc2[nH]ccc2c1 (single isomer, unassigned) [Example 106, 6-((1H-pyrrolo[2,3-b]pyridin-5-yl)methyl)-7-methyl-N-(3-(trifluoromethyl)phenyl)-4,5,6,7-tetrahydrothieno[2,3-c]pyridine-3-carboxamide]	< 25	< 25	25 to 50	< 25
CN1CCN(Cc2cc(NC(=O)c3csc4c3CCN(C(=O)c3cnc5ccccn35)C4)cc(C(F)(F)F)c2)CC1 [Example 1, 6-(imidazo[1,2-a]pyridine-3-carbonyl)-N-(3-((4-methylpiperazin-1-yl)methyl)-5-(trifluoromethyl)phenyl)-4,5,6,7-tetrahydrothieno[2,3-c]pyridine-3-carboxamide]	25 to 50	< 25	< 25	< 25
Cn1nc(C(C)(C)C)cc1NC(=O)c1csc2c1CCN(C(=O)c1cnc3ccccn13)C2 [Example 3, N-(3-(tert-butyl)-1-methyl-1H-pyrazol-5-yl)-6-(imidazo[1,2-a]pyridine-3-carbonyl)-4,5,6,7-tetrahydrothieno[2,3-c]pyridine-3-carboxamide]	< 25	< 25	< 25	< 25
COc1ccc(NC(=O)c2csc3c2CCN(C(=O)c2cnc4ccccn24)C3)cc1C(F)(F)F [Example 4, 6-(imidazo[1,2-a]pyridine-3-carbonyl)-N-(4-methoxy-3-(trifluoromethyl)phenyl)-4,5,6,7-tetrahydrothieno[2,3-c]pyridine-3-carboxamide]	< 25	< 25	< 25	< 25
O=C(Nc1cccc(C(F)(F)F)c1)c1csc2c1CCN(C(=O)c1cnc3ccccn13)C2 [Example 7, 6-(imidazo[1,2-a]pyridine-3-carbonyl)-N-(3-(trifluoromethyl)phenyl)-4,5,6,7-tetrahydrothieno[2,3-c]pyridine-3-carboxamide]	< 25	< 25	< 25	< 25
O=C(Nc1cccc(OC(F)(F)F)c1)c1csc2c1CCN(C(=O)c1cnc3ccccn13)C2 [Example 8, 6-(imidazo[1,2-a]pyridine-3-carbonyl)-N-(3-(trifluoromethoxy)phenyl)-4,5,6,7-tetrahydrothieno[2,3-c]pyridine-3-carboxamide]	< 25	< 25	< 25	< 25
CC(C)(c1cc(NC(=O)c2csc3c2CCN(C(=O)c2cnc4ccccn24)C3)no1)C(F)(F)F [Example 9, 6-(imidazo[1,2-a]pyridine-3-carbonyl)-N-(5-(1,1,1-trifluoro-2-methylpropan-2-yl)isoxazol-3-yl)-4,5,6,7-tetrahydrothieno[2,3-c]pyridine-3-carboxamide]	< 25	< 25	< 25	< 25
O=C(Nc1ccc(OC2CCOC2)c(C(F)(F)F)c1)c1csc2c1CCN(C(=O)c1cnc3ccccn13)C2 (stereo not drawn) [Example 12, 6-(imidazo[1,2-a]pyridine-3-carbonyl)-N-(4-((tetrahydrofuran-3-yl)oxy)-3-(trifluoromethyl)phenyl)-4,5,6,7-tetrahydrothieno[2,3-c]pyridine-3-carboxamide]	< 25	< 25	< 25	< 25
O=C(Nc1cc(CN2CCOCC2)cc(C(F)(F)F)c1)c1csc2c1CCN(C(=O)c1cnc3ccccn13)C2 [Example 20, 6-(imidazo[1,2-a]pyridine-3-carbonyl)-N-(3-(morpholinomethyl)-5-(trifluoromethyl)phenyl)-4,5,6,7-tetrahydrothieno[2,3-c]pyridine-3-carboxamide]	< 25	< 25	< 25	< 25
O=C(Nc1ccc(CN2CCOCC2)c(C(F)(F)F)c1)c1csc2c1CCN(C(=O)c1cnc3ccccn13)C2 [Example 23, 6-(imidazo[1,2-a]pyridine-3-carbonyl)-N-(4-(morpholinomethyl)-3-(trifluoromethyl)phenyl)-4,5,6,7-tetrahydrothieno[2,3-c]pyridine-3-carboxamide]	< 25	< 25	25 to 50	< 25
O=C(Nc1cc(OCCN2CCOCC2)cc(C(F)(F)F)c1)c1csc2c1CCN(C(=O)c1cnc3ccccn13)C2 [Example 24, 6-(imidazo[1,2-a]pyridine-3-carbonyl)-N-(3-(2-morpholinoethoxy)-5-(trifluoromethyl)phenyl)-4,5,6,7-tetrahydrothieno[2,3-c]pyridine-3-carboxamide]	< 25	< 25	25 to 50	< 25
O=C(Nc1cc(N2CCOCC2)cc(C(F)(F)F)c1)c1csc2c1CCN(C(=O)c1cnn3ccncc13)C2 [Example 182, N-(3-morpholino-5-(trifluoromethyl)phenyl)-6-(pyrazolo[1,5-a]pyrazine-3-carbonyl)-4,5,6,7-tetrahydrothieno[2,3-c]pyridine-3-carboxamide]	< 25	< 25		< 25
CC(C)Cc1cc(NC(=O)c2csc3c2CCN(C(=O)c2cnn4ccncc24)C3)on1 [Example 183, N-(3-isobutylisoxazol-5-yl)-6-(pyrazolo[1,5-a]pyrazine-3-carbonyl)-4,5,6,7-tetrahydrothieno[2,3-c]pyridine-3-carboxamide]	50 to 80	< 25		< 25
CC1CN(C(=O)c2cnc3ccccn23)Cc2scc(C(=O)Nc3cccc(C(F)(F)F)c3)c21 (stereo not drawn) [Example 185, 6-(imidazo[1,2-a]pyridine-3-carbonyl)-4-methyl-N-(3-(trifluoromethyl)phenyl)-4,5,6,7-tetrahydrothieno[2,3-c]pyridine-3-carboxamide]	< 25	< 25		< 25
O=C(Nc1cncc(OC(F)(F)F)c1)c1csc2c1CCN(C(=O)c1cnc3ccccn13)C2 [Example 186, 6-(imidazo[1,2-a]pyridine-3-carbonyl)-N-(5-(trifluoromethoxy)pyridin-3-yl)-4,5,6,7-tetrahydrothieno[2,3-c]pyridine-3-carboxamide]	< 25	< 25		< 25
O=C(Nc1cc(CO)cc(C(F)(F)F)c1)c1csc2c1CCN(C(=O)c1cnn3ccncc13)C2 [Example 187, N-(3-(hydroxymethyl)-5-(trifluoromethyl)phenyl)-6-(pyrazolo[1,5-a]pyrazine-3-carbonyl)-4,5,6,7-tetrahydrothieno[2,3-c]pyridine-3-carboxamide]	< 25	< 25		< 25
